A word on the ED50: it is the dose at which the effect has come halfway, by size or by number of responders. Read a high ED50 as weaker potency.

The values that follow come from US6316498A, “Fluorine-containing amino acid derivatives” (Taisho Pharmaceutical Co., Ltd., priority 1998, dated 2001).

Molecules are shown by their SMILES.

In this assay the test system is Methamphetamine-induced Hyperactivity in Mice. Kind of assay: Effect on Methamphetamine-induced Hyperactivity in Mice. Type of assay: in vivo, male ICR-strain mice. To be noted: for Count (30-minute quantity of movement): 1 mg/kg methamphetamine; for Inhibition rate: vs group given solvent only; for ED50: Mus musculus, po, methamphetamine-induced hyperactivity; for inhibition of methamphetamine-induced hyperactivity (in words): ANOVA P<0.05, LY354740 except 0.01 mg/kg group. The method, then:
(Effect on Methamphetamine-induced Hyperactivity in Mice)
11-12 male ICR-strain mice (body weights 23-32 g, Charles River Japan Inc.) were used for a group. The mice were housed in a transparent cylindrical measurement cage made of vinyl chloride (diameter 30 cm, height 30 cm) and were acclimated to their environment for 90 minutes.
Next, each of the compounds listed in Table 2 was orally administered to the mice, and 30 minutes later, 1 mg/kg methamphetamine was administered […]. 15 minutes later, the 30-minute quantity of movement of the mice was measured by a count, using an automatic movement measurement device (SCANET/SV-10, from Toyo Sangyo Co., Ltd.). Each listed compound was used suspended in a solvent consisting of 0.3% Tween 80 physiological saline solution.
The inhibition rate was determined from the count of the group of mice given solvent only and the count of the group of mice given each prescribed dosage of the compounds listed in Table 2, and the ED50 value was calculated. Statistical processing was done by analysis of variance (ANOVA), followed by Dunnet's test.

The compound `N[C@@]1(C(=O)O)CC[C@H]2[C@H](C(=O)O)[C@H]21` [LY354740, (+) - (1S, 2S, 5R, 6S)-2-aminobicyclo[3.1.0]hexane-2,6-dicarboxylic acid] displayed an ED50 of 0.87 mg/kg. Also, for the setting “0.01 mg/kg p.o.”, the “Count (30-minute quantity of movement)” value is recorded as 12000 ± 3216 and the Inhibition rate is -18.8%. In addition, for the setting “0.1 mg/kg p.o.”, the “Count (30-minute quantity of movement)” value is on record as 6975 ± 1489 and the Inhibition rate worked out at 30.9%. Besides, where the note is “1 mg/kg p.o.”, the “Count (30-minute quantity of movement)” value worked out at 4534 ± 1116 and the Inhibition rate is reported as 55.1%. For the same compound, under “10 mg/kg p.o.”, the “Count (30-minute quantity of movement)” value was 3704 ± 1285 and the Inhibition rate is 63.3%. Further, the “inhibition of methamphetamine-induced hyperactivity (in words)” value (p.o.) was “the methamphetamine-induced hyperactivity was inhibited in a dose-dependent manner”.

Compound `N[C@]1(C(=O)O)[C@H]2[C@@H](C[C@@H]1F)[C@@H]2C(=O)O` [Comp. 1, (1S,2S,3S,5R,6S)-2-amino-3-fluorobicyclo[3.1.0]hexane-2,6-dicarboxylic acid] had an ED50 of 0.05 mg/kg. Where the note is “0.01 mg/kg p.o.”, the “Count (30-minute quantity of movement)” value is given as 9512 ± 3005 and the Inhibition rate amounted to 19.6%. Also, for the setting “0.1 mg/kg p.o.”, the “Count (30-minute quantity of movement)” value was 4291 ± 1283 and the Inhibition rate amounted to 63.7%. Also, under “1 mg/kg p.o.”, the “Count (30-minute quantity of movement)” value was 2353 ± 733 and the Inhibition rate was 80.1%. Further, the “inhibition of methamphetamine-induced hyperactivity (in words)” value (p.o.) is “A similar effect is also seen”. Also, where the note is “p.o., vs LY354740, from ED50 values”, the “inhibition effect relative to LY354740 for methamphetamine-induced hyperactivity” value is listed as 17.4 times.
